Reference: publication PMC3793977, “High-Throughput Screening (HTS) and Hit Validation to Identify Small Molecule Inhibitors with Activity against NS3/4A proteases from Multiple Hepatitis C Virus Genotypes” (PLoS ONE, 2013)

Columns and labels:
[1] = target: T1, full-length NS3/4A protease (genotype 1b) (Hepatitis C virus genotype 1b, UniProt Q9WMX2); test: biochemical
T1 construct: wild-type HCV NS3 (HCV polyprotein residues 1027–1657); His-tag (N); made in house
Protocol: All assays were done in duplicate in black 384-well plates (Matrix Technologies). […] 200 nL of 10 mM compound (50 µM final concentrations) were then added and incubated for 5 minutes. Enzyme reactions were initiated with 10 µL of substrate Ac-DE-Dap(QXL520)-EE-Abu-ψ-[COO]AS-C(5-FAMsp)-NH2 (Anaspec) (1 µM final concentration), incubated for 6 minutes, and quenched by 10 µL of 10% SDS as a stop solution. Fluorescence intensity was monitored with a POLARstar OPTIMA microplate reader (BMG LABTECH). Each plate contained a total of 32 positive and 32 negative controls.
A series of compound concentrations (0 to 200 µM final concentration at 2-fold serial dilution) in 100% DMSO were prepared in a 384-well plate. 20 µL of enzyme solution was distributed to wells, and 0.5 µL of varying concentration of compounds were added and incubated for 5 minutes. The enzyme reaction was initiated by adding 5 µL of the substrate, and its activity was continuously monitored for 6 minutes. The IC50 values were calculated by fitting with the Hill equation (1), with OriginPro 8.5 (OriginLab, Inc.) where y is percent inhibition, x is inhibitor concentration, n is the slope of the concentration–response curve (Hill slope), and Vmax is maximal inhibition from two to four independent assays. [drawing 1] (1)

[2] = target: T2, full-length NS3/4A (Hepatitis C virus genotype 1b, UniProt Q9WMX2); test: Type (mechanism) of enzyme inhibition, kinetic analysis; assay type: biochemical
T2 construct: wild-type HCV NS3 (HCV polyprotein residues 1027–1657); His-tag (N); made in house
Protocol: Full-length NS3/4A activity was monitored in the same way as the primary screening with varying concentration of both inhibitor compounds and substrate (0–8 µM). The concentration of compounds varied from 0 to 20 µM at 1.5-fold dilution factor.

[3] = target: T3, NS3/4A protease genotype 2a (Hepatitis C virus genotype 2a, UniProt Q99IB8); test: Inhibition assay with NS3/4A from genotype 2a; assay type: biochemical
T3 construct: against the NS3/4A protease domains from three additional HCV genotypes (1a, 2a, and 4d); purchased Anaspec
Protocol: The inhibitory activity of the final hit compounds from HTS were tested against three other HCV genotypes (1a, 2a, and 4d), along with a control (genotype 1b) and five NS3 drug-resistant mutants. Eight full-length NS3 mutants (V36M, R155K, A156T, A156S, 156V, V36A, T54A, and R155T) were generated by mutagenesis and purified, and the three HCV NS3/4A protease genotypes were purchased from Anaspec. Unfortunately the enzyme activities of the three mutants V36A, T54A, and R155T were much less than that of the rest of the mutants and were insufficient for testing, therefore mutant studies were done with the five active mutants. Continuous kinetic assays were performed against all hit compounds in the same way as the wild-type NS3/4A. As a control, full-length NS3/4A (genotype 1b) was tested under the same conditions for direct comparison for each plate.

[4] = target: T4, Chymotrypsin (Homo sapiens, UniProt P17538); test: Inhibitor selectivity assay, chymotrypsin (fluorometric); assay type: biochemical
T4 construct: purchased Sigma
Protocol: To test for selectivity, two human serine proteases, Trypsin and Chymotrypsin (Sigma), were tested with the top two hit compounds from HTS using a fluorometric assay. The fluorogenic substrates used in this study were N-benzoyl-L-Arg-7-amido-4-methylcoumarin (Sigma) and N-succinyl-Ala-Ala-Phe-7-amido-4- methylcoumarin (Sigma) for trypsin and chymotrypsin, respectively. All assays were performed in 384-well black plates (Corning) in a total volume of 24 µL of PBS (pH 7.4) buffer containing 0.01% Triton, 0.1 mg/mL BSA, and 2 mM GSH in triplicate. A series of compound concentrations (0 to 200 µM final concentration at 2-fold serial dilution) in 100% DMSO was prepared in a 384-well plate. 20 µL of trypsin (0.01 mg/mL) and chymotrypsin (0.0001 mg/mL) solutions were distributed into wells, and 0.5 µL of varying concentration of compounds were added and incubated for 10 minutes. The enzyme reaction was initiated by adding 5 µL of the substrate (50 µM final concentration), and fluorescence intensity was continuously monitored at excitation/emission wavelengths of 350 nm/460 nm for 10 minutes.

[5] = Microsomal stability assay; assay type: in vitro ADME, mouse
Protocol: A typical incubation mixture (100 µL total volume) for the metabolic stability studies contained 1 µM (final concentration) test compounds, 0.5 mg/mL microsomal protein (pooled Balb/c mouse liver microsomes prepared as described previously), 100 mM Tris-HCl buffer (pH7.4), and NADPH-generating system (5 mM isocitric acid, 0.2 unit/mL isocitric acid dehydrogenase, 5 mM magnesium chloride, 1 mM NADP^+). After pre-incubation at 37°C for 5 minutes, the reactions were started by addition of NADP^+ and further incubated for another 0, 5, 10, and 20 minutes. For control experiments, NADPH and/or liver microsomes were omitted from these incubations. The reactions were terminated by adding 100 µL ice-cold acetonitrile containing phenytoin (1 µM) as an internal standard and kept on ice for 30 minutes, followed by centrifugation at 16,100 g for 15 minutes to obtain the supernatant. Aliquots (5 µL) were then analyzed for substrate disappearance using liquid chromatography-tandem mass spectrometry (Agilent 1200 HPLC interfaced with Applied Biosystems Qtrap 3200) equipped with an electrospray ion source. Chromatographic separation was carried out with a Waters XTerra MS C18 column (2.1×50 mm, 3.5 µm; Agilent Technologies, Santa Clara, CA). The mobile phases consisted of solvent A (0.1% (v/v) aqueous formic acid) and solvent B (acetonitrile). A 250 µL/min flow rate gradient was developed for each test compound over 10 minutes (Table S2 in File S1). Mass detection of test substrates and internal standard were followed in a positive ion mode by examining multiple reaction monitoring (MRM) pairs. The spraying needle voltage was set at 5000 V. Curtain gas was set at 20; gas 1 and gas 2 were set at 45 and 50, respectively; collision assisted dissociation gas was at medium; and the source heater probe temperature was at 500°C. The test compounds were quantified by comparing the ratio of ion currents obtained for the substrates and an internal standards calibration curve. Data acquisition and processing were accomplished using Analyst software (version 1.4.1; Applied Biosystems). Apparent half-lives (t1/2) for the disappearance of parent drugs were calculated from the pseudo-first-order rate constants (ke) obtained by linear regression of plots of log [drug remaining] versus time (GraphPad Prism 5 software, La Jolla, CA) using the equation: t1/2 = 0.693/ke.

## Cc1cc(NC(=O)Cc2csc(NS(=O)(=O)c3ccccc3)n2)ccc1Br [Compound 12]
[1]; calculated with IC50 values from the full-length NS3/4A
  LE: 0.29 kcal/mol/heavy atom
[1]; purified full-length NS3/4A, genotype 1b wild-type, read-out: IC50 Full-length NS3/4A
  IC50: 2.2 ± 0.4 µM
[2]; competitive model, with respect to substrate
  Ki: 3.5 µM
[2]; with respect to the substrate, best fit model
  mechanism of inhibition: competitive inhibitors
[3]; IC50 Purified NS3/4A Sub-genotype 2a, genotype 2a
  IC50: 12.7 ± 1.2 µM
[3]; purified enzymes
  fold less effective against genotype 2a than 1b in the biochemical assay: ~6 fold
[4]; 100 µM compound, read-out: Chymotrypsin % Inh at 100 µM
  inhibition at 100 µM: 19%
[4]; human chymotrypsin
  IC50: > 100 µM
[5]; Balb/c, pH 7.4, mouse liver microsomes 0.5 mg/mL, 1 µM compound, NADPH-generating system, read-out: Microsomal stability t1/2
  half-life at 1 µM: 21.7 min
[5]; mouse liver microsomes, rounded values
  microsomal stability: 22 min
